Measured values as given in patent publication US10976318B2, “Method of treating cancer using a caspase-4 inhibitor” (IMMUNEPHARMA S.R.L., priority 2014, dated 2021).
*: point of attachment. CH2Cl = ClC*

System: lung tumor lesion in C57Bl/6 mice treated with NMU
Assay: Murine model of lung carcinoma induced by intratracheal NMU; tumor lesion area/total lung area
Type: in vivo, mouse
Conditions: C57Bl/6 mice exposed to NMU, caspase-1 inhibitor i.p.; *p<0.05, **p<0.01; FIG. 6C
Method: Murine Model of Lung Carcinoma.
C57Bl/6 mice (Harlan Laboratories, Italy) and 129Sv mice, and caspase-1 and 11 knockout mice (Charles River Laboratories, Italy) (females of 6-8 weeks) were subjected to intratracheal (i.t.) instillation of a carcinogen, N-nitroso-N-methyl-urea (NMU), having alkylating and mutagenic activities (Damiani et al., 2008). NMU was administered three times every 7 days, according to the following administration schedule and dosage: day 0, 50 μg/mouse; day 8, 10 μg/mouse and day 15, 10 μg/mouse (FIG. 1). In some experiments, an anti-IL-1α antibody (Ab) (2 μg/[…] i.p.; eBioscience, USA), or a caspase-1 inhibitor (Ac-Y-VAD-cmk: 10 ug/mouse i.p., Sigma Aldrich, USA), or an anti-caspase-11 antibody (10 ug/mouse, i.p.; Santa Cruz, USA) were administered to C57Bl/6 mice treated with NMU. The animals were sacrificed at different time points (3-7-30 days from the first NMU administration), according to the scheme shown in FIG. 1. The tumor lesion was expressed as the tumor lesion area/total lung area ratio. […]
The results are expressed as mean±SEM. The differences between the various groups were statistically analyzed using One Way ANOVA analysis and/or Student's t test, as appropriate. […]

Row | Substance | tumor lesion, effect in words
1 | Ac-Tyr-Val-Ala-Asp-Chloromethylketone (Ac-YVAD-CH2Cl) [Ac-Y-VAD-cmk, N. SML-0429] | reduced
2 | Ac-Tyr-Val-Ala-Asp-CHO (Ac-YVAD-aldehyde) [y-VAD-CHO, N. sc-3069] | reduced
